Tests used:
NIH 3T3 fibroblast cells [1] = experiment: Hydrodynamic stretching deformability of chemically treated NIH 3T3 fibroblasts in the microfluidic system; format: cell-based; settings: flow rate 10 μl/min, 2 wt % PEO; for mean deformability in the first frame: first frame of the recording cycle (before stretching); for deformability (mean, aspect ratio a/b of the deformed cell): last (15th) frame, CB 150 μM for two hours, fixation 4% formaldehyde for 8 mins
Description: On the other hand, an electrical sensing zone is introduced for on-demand single cell imaging. Three electrodes of 20 μm in width, 20 μm intervals are placed before the flow splitting junction, an input voltage of 0.5 V at 5 MHz is applied to the middle electrode and the differential current (Idifferential) is calculated from the two-sided electrodes. The differential configuration can cancel out electrical drifting caused by environmental fluctuation (i.e. flow, temperature, conductivity and pH) and achieve a higher signal-to-noise ratio. As the cell passes through the sensing region, it replaces the conductive medium and causes a change in the electrical current. By that, a pair of opposite peaks is transmitted into an impedance spectroscope. When the peak reaches the trigger level, a trigger signal is generated and fed to the camera. […] Next, for example at a flow rate of 10 μl/min, the camera starts to record 15 frames at a rate of 2,000 frames per second, with an exposure time of 50 μs. The first frame in a recording cycle is used to extract the cell diameter. At this point, the cell remains spherical because it starts to decelerate and is subject to minor stress. In one record cycle, the cell approaches the splitting junction, reaches the channel wall and migrates along the wall for a time span, ensuring the maximum strain is captured at the 15th frame (FIG. 5a). Its aspect ratio evaluates the cell deformability as
where a and b are the length of the long axis and the short axis of the deformed cell, respectively.
(§1) Cytochalasin B (Sigma-Aldrich) treated NIH 3T3 were prepared by incubating cells in 150 μM Cytochalasin B at 37° C. for two hours. After treatment with chemical reagents, cells were washed, centrifuged and resuspended in 2 wt % PEO solution. The viscoelastic solution was prepared by dissolving PEO (Mw=600 kDa, Sigma-Aldrich) powder into DPBS (Thermo Fisher Scientific) with a concentration of 2 wt %.
Samples were continuously introduced into the microfluidic devices using a syringe pump (KD Scientific, Holliston, MA) at a range of flow rates. Simultaneously, the electrical current was received by an impedance spectroscope (HF2IS, Zurich Instruments) and analyzed by a real-time program to send out a trigger signal whenever there was a cell passing through the electrical sensing region. The triggering signal was received by a camera (Photron Inc., San Diego, CA, USA), which started to record 15 frames at a 2,000 frame rate with an exposure time of 50 μs (at a flow rate of 10 μl/min). After the event triggered imaging process was completed, the video was processed offline using a custom-built Python program. […]

NIH 3T3 fibroblast cells [2] = experiment: Fluorescence imaging of actin in live NIH 3T3 cell before and after CB treatment; format: cell-based; settings: NIH 3T3, fluorescence images (actin)
Description: (a) Representative fluorescence images (actin, red) of a live cell before (top) and after CB treatment (bottom).
as §1
To test the sensitivity of our system for cellular mechanical phenotyping, we compared the deformability of normal and Cytochalasin B (CB) treated two hours NIH 3T3 fibroblasts. […] In addition, we measured the deformability at a wide flow rate range of 1-30 μl/min. […] This flow rate was then applied to analyze the deformability difference. Furthermore, fixed cells were measured as control of undeformed cells.

Row | Compound | mean deformability in the first frame (NIH 3T3 fibroblast cells [1]) | deformability (mean, aspect ratio a/b of the deformed cell) (NIH 3T3 fibroblast cells [1]) | effect on intracellular F-actin (FIG. 8a) (NIH 3T3 fibroblast cells [2])
1 | C=C1[C@@H](C)[C@H]2[C@H](Cc3ccccc3)NC(=O)[C@]23OC(=O)/C=C/[C@H](O)CCC[C@@H](C)C/C=C/[C@H]3[C@@H]1O [CB, Cytochalasin B] | 1.16±0.12 | 1.87±0.23 | intracellular F-actin depolymerization
2 | C=O [formaldehyde] | 1.12±0.06 | 1.29±0.11 | –

From US20230296491A1, “DEVICE AND METHOD FOR DETERMINING A MECHANICAL PROPERTY OF A PARTICLE” (priority 2020, published 2023)
